Entries after “also recorded” stand apart in the source; their conditions may differ.
Tests used:
[1] = system: human colorectal cancer-derived cell line NCI-H716; assay: GLP-1 secretion, GLP-1 concentration in supernatant by ELISA; format: cell-based; details: for GLP-1 concentration in the supernatant compared to the DMSO treatment (control) group: 60 minutes, result in words (FIGS. 1-11); for fold induction at 100 µM / fold induction at 300 µM: Homo sapiens, NCI-H716, 1 h, GLP-1 concentration in supernatant against control group (0.1% DMSO) as 1, 60 minutes
Description: Subcultured human colorectal cancer-derived cell line NCI-H716 (ATCC) was plated on a poly-D-lysine coated 96-well plate at 1×10^5 cells per well. After culture at 37° C., 5% CO2 for 48 hours, the medium was substituted with a buffer (146 mM NaCl, 5 mM KCl, 1 mM MgSO4, 5.5 mM Glucose, 20 mM HEPES, 1.5 mM CaCl2, 0.2% BSA, pH 7.4), and dihydrocapsiate (DCT), dihydrocapsiate glycoside and structural analogs thereof (compounds 4, 12, 47, 27, 20, 18, 16, 30, 32, 32-3, 34, 35, 36, 24-2, 33, 14, 22, 23 and 24), each prepared to a given concentration with dimethyl sulfoxide (DMSO), were added. After treatment at 37° C., 5% CO2 for 60 minutes, the supernatant was recovered, and the concentration of GLP-1 in the supernatant was measured by the ELISA method. The strength of the activity of each compound is expressed against GLP-1 concentration of the control group (0.1% DMSO treatment group) as 1, and the compound showing higher GLP-1 concentration than the control group was evaluated as active.

C57BL/6J mice = assay: food ingestion calories of mice fed test diets for 56 days; format: in vivo; details: 0.459% (w/w) in high-fat diet, mouse, compared to normal diet, high-fat diet alone or high-fat diet added with DCT, result in words, listed as glycoside DCT
Description: Glycoside DCT was added at a proportion of 0.459% (w/w) to AIN-93 composition diet containing 30% lard (to be abbreviated as glycoside DCT diet or glycoside diet), and fed to mouse. […] As a control, AIN-93 composition diet containing 7% lard (to be abbreviated as normal diet), AIN-93 composition diet containing 30% lard (to be abbreviated as high-fat diet), and high-fat diet containing 0.3% (w/w) dihydrocapsiate (DCT) (to be abbreviated as DCT diet) were fed to the mouse.
The details of the test method are shown below. 7-week-old male C57BL/6J mice (n=46) (Charles River Laboratories) were acclimated for 2 weeks, divided into 4 groups such that they have the same average body weight, and each group was allowed to freely ingest a food having the composition shown in Table 2 for 56 days. The body weight and the food ingestion amount were measured every 3-4 days.

[2] = system: human colorectal cancer-derived cell line NCI-H716; assay: GLP-1 secretion, GLP-1 concentration in supernatant by ELISA; format: cell-based; details: result in words (FIG. 2)

SMILES | GLP-1 concentration in the supernatant compared to the DMSO treatment (control) group [1] | total ingested calories during the test period (C57BL/6J mice) | fold induction at 100 µM [1] | GLP-1 concentration compared to the group treated with equimolar concentration of glucose or cellobiose [2] | fold induction at 300 µM [1]
COc1cc(COC(=O)CCCCCCC(C)C)ccc1O [DCT, dihydrocapsiate, reference compound] | did not show a similar change | – | – | – | –
COc1cc(COC(=O)CCCCCCC(C)C)ccc1OC1OC(CO)C(O)C(O)C1O [compound 4, O-[4-(β-D-glucopyranosyloxy)-3-methoxybenzyl]-8-methylnonanoic acid ester] | increased in a compound concentration-dependent manner | suppress food ingestion calories; also recorded: significant decrease | 2.3 | markedly high | –
COc1cc(COC(=O)CCCCCCC(C)C)ccc1OC1OC(CO)C(OC2OC(CO)C(O)C(O)C2O)C(O)C1O [compound 12, O-[4-(β-D-glucopyranosyl-(1→4)-β-D-glucopyranosyloxy)-3-methoxybenzyl]-8-methylnonanoic acid ester] | increased in a compound concentration-dependent manner | – | 5.02 | markedly high | –
COc1cc(CO)ccc1O[C@@H]1O[C@H](CO)[C@@H](O[C@@H]2O[C@H](CO)[C@@H](O)[C@H](O)[C@H]2O)[C@H](O)[C@H]1O [compound 14, 4-(β-D-glucopyranosyl-(1→4)-β-D-glucopyranosyloxy)-3-methoxybenzyl alcohol] | increased | – | 1.07 | – | 1.12
CCCCCCCCCC(=O)OCc1ccc(OC2OC(CO)C(O)C(O)C2O)c(OC)c1 [compound 16, O-[4-(β-D-glucopyranosyloxy)-3-methoxybenzyl]-decanoic acid ester] | increased | – | 1.23 | – | 3.25
COc1cc(COC(=O)CCCCCC(C)C)ccc1OC1OC(CO)C(O)C(O)C1O [compound 18, O-[4-(β-D-glucopyranosyloxy)-3-methoxybenzyl]-7-methyloctanoic acid ester] | increased | – | 1.33 | – | 1.85
COc1cc(COC(=O)CCCC/C=C/C(C)C)ccc1OC1OC(CO)C(O)C(O)C1O [compound 20, O-[4-(β-D-glucopyranosyloxy)-3-methoxybenzyl]-8-methyl-6-nonenoic acid ester] | increased | – | 1.13 | – | 1.56
COc1cc(CC(=O)OCCCCCCCC(C)C)ccc1OC1OC(CO)C(OC2OC(CO)C(O)C(O)C2O)C(O)C1O [compound 22, O-8-methylnonyl-2-[4-(β-D-glucopyranosyl-(1→4)-β-D-glucopyranosyloxy)-3-methoxyphenyl]acetic acid ester] | increased | – | 1.87 | – | 1.66
COc1cc(CCOC(=O)CCCCCCC(C)C)ccc1OC1OC(CO)C(OC2OC(CO)C(O)C(O)C2O)C(O)C1O [compound 23, O-[4-(β-D-glucopyranosyl-(1→4)-β-D-glucopyranosyloxy)-3-methoxyphenethyl]-8-methylnonanoic acid ester] | increased | – | 1.37 | – | 10.3
COc1cccc(COC(=O)CCCCCCC(C)C)c1OC1OC(CO)C(OC2OC(CO)C(O)C(O)C2O)C(O)C1O [compound 24, O-[2-(β-D-glucopyranosyl-(1→4)-β-D-glucopyranosyloxy)-3-methoxybenzyl]-8-methylnonanoic acid ester] | increased | – | 1.33 | – | 9.5
COc1cccc(COC(=O)CCCCCCC(C)C)c1OC1OC(COC(C)=O)C(OC2OC(COC(C)=O)C(OC(C)=O)C(OC(C)=O)C2OC(C)=O)C(OC(C)=O)C1OC(C)=O (centres unmarked) [compound 24-2] | increased | – | 0.87 | – | 1.15
COc1cc(CNC(=O)CCCCCCC(C)C)ccc1O[C@@H]1O[C@H](CO)[C@@H](O[C@@H]2O[C@H](CO)[C@@H](O)[C@H](O)[C@H]2O)[C@H](O)[C@H]1O [compound 27, N-[4-(β-D-glucopyranosyl-(1→4)-β-D-glucopyranosyloxy)-3-methoxybenzyl]-8-methylnonanamide, reference compound] | did not show GLP-1 secretion promoting activity | – | 0.66 | – | 0.71
COc1cc(CCC(=O)OCCCCCCCC(C)C)ccc1OC1OC(CO)C(O)C(O)C1O [compound 30, O-8-methylnonyl-3-[4-(β-D-glucopyranosyloxy)-3-methoxyphenyl]propionic acid ester] | increased | – | 0.93 | – | 2.6
COc1cc(CCC(=O)OCCCCCCCC(C)C)ccc1OC1OC(CO)C(OC2OC(CO)C(O)C(O)C2O)C(O)C1O [compound 32, O-8-methylnonyl-3-[4-(β-D-glucopyranosyl-(1→4)-β-D-glucopyranosyloxy)-3-methoxyphenyl]propionic acid ester] | increased | – | 1.24 | – | 3.46
COc1ccc(COC(=O)CCCCCCC(C)C)cc1OC1OC(CO)C(O)C(O)C1O [compound 34, O-[3-(β-D-glucopyranosyloxy)-4-methoxybenzyl]-8-methylnonanoic acid ester] | increased | – | 1.29 | – | 1.94
COc1cc(COC(=O)CCCC/C=C/C(C)C)ccc1OC1OC(CO)C(OC2OC(CO)C(O)C(O)C2O)C(O)C1O [compound 35, O-[4-(β-D-glucopyranosyl-(1→4)-β-D-glucopyranosyloxy)-3-methoxybenzyl]-8-methyl-6-nonenoic acid ester] | increased | – | 1.14 | – | 2.4
COc1cc(COC(=O)CCCCCC(C)C)ccc1OC1OC(CO)C(OC2OC(CO)C(O)C(O)C2O)C(O)C1O [compound 36, O-[4-(β-D-glucopyranosyl-(1→4)-β-D-glucopyranosyloxy)-3-methoxybenzyl]-7-methyloctanoic acid ester] | increased | – | 1.19 | – | 2.41
COc1cc(CNC(=O)CCCCCCC(C)C)ccc1O[C@@H]1O[C@H](CO)[C@@H](O)[C@H](O)[C@H]1O [compound 47, N-[4-(β-D-glucopyranosyloxy)-3-methoxybenzyl]-8-methylnonanamide, reference compound] | did not show GLP-1 secretion promoting activity | – | 0.61 | – | 0.78
